In brackets after ≈: the same amount, converted by molar mass. Activity calls are given as the source filed them. The calls are words filed in the database; no cut-off is given here. Positions of bridges follow the written chain, without caps; N, C: chain ends. Non-standard residues stand in square brackets, D forms with d. Residues, ends and D or L forms follow the SMILES beside them. *: point of attachment. Heptanoyl(6-Me) = CC(C)CCCCC(=O)*; dDab = NCC[C@@H](N)C(=O)O; Dab = NCC[C@H](N)C(=O)O
Legend:
[1] = tested on: Staphylococcus epidermidis; test: Antibacterial activity against Staphylococcus epidermidis KCTC 1917 strain assessed as bacterial growth inhibition measured at 18 to 24 hrs by microdilution assay; format: functional; conditions: time 18-24 hrs
Erythrocyte = test: Hemolytic activity in sheep RBC assessed as minimal hemolytic concentration causing 10% hemolysis incubated for 1 hr by ELISA; format: toxicity, cell-based, Ovis aries
Pseudomonas aeruginosa [2] = test: Antibacterial activity against Pseudomonas aeruginosa KCTC 1637 strain assessed as bacterial growth inhibition measured at 18 to 24 hrs by microdilution assay; format: functional; conditions: time 18-24 hrs
Staphylococcus aureus [3] = test: Antibacterial activity against Staphylococcus aureus KCTC 1621 strain assessed as bacterial growth inhibition measured at 18 to 24 hrs by microdilution assay; format: functional; conditions: time 18-24 hrs
Escherichia coli = test: Antibacterial activity against Escherichia coli KCTC 1682 strain assessed as bacterial growth inhibition measured at 18 to 24 hrs by microdilution assay; format: functional; conditions: time 18-24 hrs
Staphylococcus aureus [4] = test: Antibacterial activity against methicillin-resistant Staphylococcus aureus CCARM 3095 strain assessed as bacterial growth inhibition measured at 18 to 24 hrs by microdilution assay; format: functional; conditions: time 18-24 hrs
Staphylococcus aureus [5] = test: Antibacterial activity against methicillin-resistant Staphylococcus aureus CCARM 3089 strain assessed as bacterial growth inhibition by checkerboard assay; format: functional
Pseudomonas aeruginosa [6] = test: Bacteriostatic activity against multidrug-resistant Pseudomonas aeruginosa CCARM 2095 measured after 24 hrs by time-kill kinetics assay; format: functional, organism-based
Enterococcus faecium = test: Antibacterial activity against vancomycin-resistant Enterococcus faecium ATCC 51559 strain assessed as bacterial growth inhibition measured at 18 to 24 hrs by microdilution assay; format: functional; conditions: time 18-24 hrs
Staphylococcus aureus [7] = test: Antibacterial activity against methicillin-resistant Staphylococcus aureus CCARM 3089 strain assessed as bacterial growth inhibition measured at 18 to 24 hrs by microdilution assay; format: functional; conditions: time 18-24 hrs
Pseudomonas aeruginosa [8] = test: Synergistic antibacterial activity against multidrug-resistant Pseudomonas aeruginosa CCARM 2095 strain assessed as bacterial growth inhibition by checkerboard assay; format: functional
Pseudomonas aeruginosa [9] = test: Additive antibacterial activity against multidrug-resistant Pseudomonas aeruginosa CCARM 2095 strain assessed as bacterial growth inhibition by checkerboard assay; format: functional
Pseudomonas aeruginosa [10] = test: Antibacterial activity against multidrug-resistant Pseudomonas aeruginosa CCARM 2095 strain assessed as bacterial growth inhibition measured at 18 to 24 hrs by microdilution assay; format: functional; conditions: time 18-24 hrs
Pseudomonas aeruginosa [11] = test: Bactericidal activity against multidrug-resistant Pseudomonas aeruginosa CCARM 2095 measured after 24 hrs by time-kill kinetics assay; format: functional, organism-based
Staphylococcus aureus [12] = test: Antibacterial activity against methicillin-resistant Staphylococcus aureus CCARM 3090 strain assessed as bacterial growth inhibition measured at 18 to 24 hrs by microdilution assay; format: functional; conditions: time 18-24 hrs
Pseudomonas aeruginosa [13] = test: Antibacterial activity against multidrug-resistant Pseudomonas aeruginosa CCARM 2109 strain assessed as bacterial growth inhibition measured at 18 to 24 hrs by microdilution assay; format: functional; conditions: time 18-24 hrs
Pseudomonas aeruginosa [14] = test: Antibiofilm activity against multidrug-resistant Pseudomonas aeruginosa assessed as biofilm eradication; format: functional
Pseudomonas aeruginosa [15] = test: Antibiofilm activity against multidrug-resistant Pseudomonas aeruginosa assessed as inhibition of biofilm formation; format: functional
Lipopolysaccharide (LPS) [16] = test: Binding affinity to Escherichia coli O111:B4 lipopolysaccharide assessed as suppression of FTIC labeled LPS binding to mouse RAW264.7 cells at 20 ug/ml pretreated LPS with cells for 1 hr followed by compound addition measured after 1 hr by flow cytometer assay (reference value: 48.12%); format: cell-based; conditions: dose 20.0 µg/ml
Lipopolysaccharide (LPS) [17] = test: Binding affinity to Escherichia coli O111:B4 lipopolysaccharide assessed as suppression of FTIC labeled LPS binding to mouse RAW264.7 cells at 20 ug/ml pretreated with LPS followed by compound addition by flow cytometer assay (reference value: 67.4%); format: cell-based; conditions: dose 20.0 µg/ml

Molecule	MIC [1]	MHC (Erythrocyte)	MIC (Pseudomonas aeruginosa [2])	MIC (Staphylococcus aureus [3])	MIC (Escherichia coli)	also measured
NCCN(CCN)c1nc(NCc2ccccc2)nc(N2CCN(c3nc(NCc4ccc5ccccc5c4)nc(N(CCN)CCN)n3)C(Cc3ccccc3)C2)n1 (stereo not drawn)	5 µM (≈ 3.99 µg/mL)	> 320 µM	20 µM (≈ 15.9 µg/mL)	5 µM (≈ 3.99 µg/mL)	40 µM (≈ 31.9 µg/mL)	–
O=C(O)c1cn(C2CC2)c2cc(N3CCNCC3)c(F)cc2c1=O [CIPROFLOXACIN]	–	–	–	–	–	MIC (Staphylococcus aureus [4]): > 6180 µM; MIC (Staphylococcus aureus [5]): 512 µg/mL; Activity (Pseudomonas aeruginosa [6]): inactive; MIC (Enterococcus faecium): 1550 µM (≈ 512 µg/mL); MIC (Staphylococcus aureus [7]): > 6180 µM; MIC (Pseudomonas aeruginosa [8]): 1020 µg/mL; MIC (Pseudomonas aeruginosa [9]): 1020 µg/mL; MIC (Pseudomonas aeruginosa [10]): 3090 µM (≈ 1020 µg/mL); Activity (Pseudomonas aeruginosa [11]): inactive; MIC (Staphylococcus aureus [12]): > 6180 µM; MIC (Pseudomonas aeruginosa [13]): > 6180 µM
N=C(N)NCCCCNc1nc(NCCCCNC(=N)N)nc(N2CCN(c3nc(NCCCCNC(=N)N)nc(NCCCCNC(=N)N)n3)C(Cc3ccccc3)C2)n1 (stereo not drawn)	4.7 µM (≈ 3.98 µg/mL)	> 302.1 µM	9.4 µM (≈ 7.96 µg/mL)	9.4 µM (≈ 7.96 µg/mL)	18.9 µM (≈ 16 µg/mL)	–
N=C(N)NCCCNc1nc(NCCCNC(=N)N)nc(N2CCN(c3nc(NCCCNC(=N)N)nc(NCCCNC(=N)N)n3)C(Cc3ccccc3)C2)n1 (stereo not drawn)	20.2 µM (≈ 16 µg/mL)	> 322.6 µM	20.2 µM (≈ 16 µg/mL)	20.2 µM (≈ 16 µg/mL)	20.2 µM (≈ 16 µg/mL)	–
N=C(N)NCCNc1nc(NCCNC(=N)N)nc(N2CCN(c3nc(NCCNC(=N)N)nc(NCCNC(=N)N)n3)C(Cc3ccccc3)C2)n1 (stereo not drawn)	21.8 µM (≈ 16 µg/mL)	> 348.2 µM	21.8 µM (≈ 16 µg/mL)	21.8 µM (≈ 16 µg/mL)	21.8 µM (≈ 16 µg/mL)	–
NCCCN(CCCN)c1nc(NCc2ccccc2)nc(N2CC(Cc3ccccc3)N(c3nc(NCc4ccc5ccccc5c4)nc(N(CCCN)CCCN)n3)CC2Cc2ccccc2)n1 (stereo not drawn)	4.7 µM (≈ 4.43 µg/mL)	189.5 µM	18.7 µM (≈ 17.6 µg/mL)	4.7 µM (≈ 4.43 µg/mL)	9.4 µM (≈ 8.87 µg/mL)	–
N=C(N)NCCCNc1nc(NCCCNC(=N)N)nc(N2CC(Cc3ccccc3)N(c3nc(NCCCNC(=N)N)nc(NCCCNC(=N)N)n3)CC2Cc2ccccc2)n1 (stereo not drawn)	9.1 µM (≈ 8.02 µg/mL)	> 290.3 µM	18.1 µM (≈ 15.9 µg/mL)	4.5 µM (≈ 3.97 µg/mL)	9.1 µM (≈ 8.02 µg/mL)	MBEC50 (Pseudomonas aeruginosa [14]): 18.1 µM; MBEC90 (Pseudomonas aeruginosa [14]): 145.2 µM; MBEC50 (Pseudomonas aeruginosa [15]): 18.1 µM; MBEC90 (Pseudomonas aeruginosa [15]): 145.2 µM; MBIC (Pseudomonas aeruginosa [15]): 36.3 µM; MBIC50 (Pseudomonas aeruginosa [15]): 4.5 µM
N=C(N)NCCCNc1nc(NCCCN)nc(N2CCN(c3nc(NCCCN)nc(NCCCN)n3)CC2Cc2ccccc2)n1 (stereo not drawn)	12 µM (≈ 7.98 µg/mL)	> 384 µM	24 µM (≈ 16 µg/mL)	12 µM (≈ 7.98 µg/mL)	24 µM (≈ 16 µg/mL)	–
N=C(N)NCCN(CCNC(=N)N)c1nc(NCc2ccccc2)nc(N2CC(Cc3ccccc3)N(c3nc(NCc4ccccc4)nc(N(CCNC(=N)N)CCNC(=N)N)n3)CC2Cc2ccccc2)n1 (stereo not drawn)	4.4 µM (≈ 4.42 µg/mL)	124.5 µM	8.7 µM (≈ 8.75 µg/mL)	4.4 µM (≈ 4.42 µg/mL)	8.7 µM (≈ 8.75 µg/mL)	–
NCCNc1nc(NCCN)nc(N2CCN(c3nc(NCCN)nc(NCCN)n3)C(Cc3ccccc3)C2)n1 (stereo not drawn)	56.4 µM (≈ 32 µg/mL)	> 451.1 µM	28.2 µM (≈ 16 µg/mL)	56.4 µM (≈ 32 µg/mL)	56.4 µM (≈ 32 µg/mL)	–
COLISTIN	–	–	–	–	–	MIC (Staphylococcus aureus [4]): 13.8 µM; MIC (Staphylococcus aureus [5]): 512 µg/mL; MIC (Enterococcus faecium): 13.8 µM; MIC (Staphylococcus aureus [7]): 27.7 µM; MIC (Pseudomonas aeruginosa [10]): 55.4 µM; MIC (Staphylococcus aureus [12]): 27.7 µM; MIC (Pseudomonas aeruginosa [13]): 27.7 µM
CC(C)CCCCC(=O)N[C@@H](CCN)C(=O)N[C@H](C(=O)N[C@@H](CCN)C(=O)N[C@H]1CCNC(=O)[C@H]([C@@H](C)O)NC(=O)[C@H](CCN)NC(=O)[C@H](CCN)NC(=O)[C@H](CC(C)C)NC(=O)[C@@H](Cc2ccccc2)NC(=O)[C@@H](CCN)NC1=O)[C@@H](C)O ({Heptanoyl(6-Me)}-[Dab]T[Dab][Dab][dDab][dF]L[Dab][Dab]T; lactam 4-C)	–	–	–	–	–	Flu intensity (Lipopolysaccharide (LPS) [16]): 45.3%; Flu intensity (Lipopolysaccharide (LPS) [17]): 12.3%
NCCCNc1nc(NCCCN)nc(N2CC(Cc3ccccc3)N(c3nc(NCCCN)nc(NCCCN)n3)CC2Cc2ccccc2)n1 (stereo not drawn)	11.2 µM (≈ 7.99 µg/mL)	> 358.4 µM	22.4 µM (≈ 16 µg/mL)	11.2 µM (≈ 7.99 µg/mL)	11.2 µM (≈ 7.99 µg/mL)	–
N=C(N)NCCCCNc1nc(NCCCCNC(=N)N)nc(N2CC(Cc3ccccc3)N(c3nc(NCCCCNC(=N)N)nc(NCCCCNC(=N)N)n3)CC2Cc2ccccc2)n1 (stereo not drawn)	8.5 µM (≈ 7.97 µg/mL)	> 273.2 µM	8.5 µM (≈ 7.97 µg/mL)	8.5 µM (≈ 7.97 µg/mL)	8.5 µM (≈ 7.97 µg/mL)	MBEC50 (Pseudomonas aeruginosa [14]): 17.1 µM; MBEC90 (Pseudomonas aeruginosa [14]): 68.3 µM; MBEC50 (Pseudomonas aeruginosa [15]): 17.1 µM; MBEC90 (Pseudomonas aeruginosa [15]): 68.3 µM; MBIC (Pseudomonas aeruginosa [15]): 34.1 µM; MBIC50 (Pseudomonas aeruginosa [15]): 8.5 µM
NCCCCNc1nc(NCCCCN)nc(N2CCN(c3nc(NCCCCN)nc(NCCCCN)n3)C(Cc3ccccc3)C2)n1 (stereo not drawn)	23.5 µM (≈ 16 µg/mL)	> 376.3 µM	47 µM (≈ 31.9 µg/mL)	23.5 µM (≈ 16 µg/mL)	47 µM (≈ 31.9 µg/mL)	–
N=C(N)NCCCCNc1nc(NCCCCN)nc(N2CCN(c3nc(NCCCCN)nc(NCCCCN)n3)CC2Cc2ccccc2)n1 (stereo not drawn)	5.6 µM (≈ 4.04 µg/mL)	> 355.8 µM	11.1 µM (≈ 8 µg/mL)	11.1 µM (≈ 8 µg/mL)	22.2 µM (≈ 16 µg/mL)	–
NCCCNc1nc(NCCCN)nc(N2CCN(c3nc(NCCCN)nc(NCCCN)n3)C(Cc3ccccc3)C2)n1 (stereo not drawn)	25.6 µM (≈ 15.9 µg/mL)	> 409.6 µM	51.2 µM (≈ 31.9 µg/mL)	25.6 µM (≈ 15.9 µg/mL)	51.2 µM (≈ 31.9 µg/mL)	–
N=C(N)NCCN(CCNC(=N)N)c1nc(NCc2ccccc2)nc(N2CCN(c3nc(NCc4ccc5ccccc5c4)nc(N(CCNC(=N)N)CCNC(=N)N)n3)C(Cc3ccccc3)C2)n1 (stereo not drawn)	4.1 µM (≈ 3.96 µg/mL)	37.3 µM	16.6 µM (≈ 16 µg/mL)	4.1 µM (≈ 3.96 µg/mL)	16.6 µM (≈ 16 µg/mL)	–
N=C(N)NCCCN(CCCNC(=N)N)c1nc(NCc2ccccc2)nc(N2CC(Cc3ccccc3)N(c3nc(NCc4ccccc4)nc(N(CCCNC(=N)N)CCCNC(=N)N)n3)CC2Cc2ccccc2)n1 (stereo not drawn)	4.1 µM (≈ 4.35 µg/mL)	226.4 µM	8.2 µM (≈ 8.7 µg/mL)	4.4 µM (≈ 4.67 µg/mL)	16.5 µM (≈ 17.5 µg/mL)	–
N=C(N)NCCCN(CCCNC(=N)N)c1nc(NCc2ccccc2)nc(N2CC(Cc3ccccc3)N(c3nc(NCc4ccc5ccccc5c4)nc(N(CCCNC(=N)N)CCCNC(=N)N)n3)CC2Cc2ccccc2)n1 (stereo not drawn)	3.9 µM (≈ 4.33 µg/mL)	56.8 µM	7.8 µM (≈ 8.67 µg/mL)	15.7 µM (≈ 17.4 µg/mL)	31.4 µM (≈ 34.9 µg/mL)	–
Cc1onc(-c2ccccc2)c1C(=O)N[C@@H]1C(=O)N2[C@@H]1SC(C)(C)[C@@H]2C(=O)O [OXACILLIN]	–	–	–	–	–	MIC (Staphylococcus aureus [4]): > 5100 µM; MIC (Staphylococcus aureus [5]): 1020 µg/mL; Activity (Pseudomonas aeruginosa [6]): inactive; MIC (Enterococcus faecium): 2180 µM (≈ 873 µg/mL); MIC (Staphylococcus aureus [7]): 2550 µM (≈ 1020 µg/mL); MIC (Pseudomonas aeruginosa [8]): 1020 µg/mL; MIC (Pseudomonas aeruginosa [9]): 1020 µg/mL; MIC (Pseudomonas aeruginosa [10]): 5100 µM (≈ 2050 µg/mL); Activity (Pseudomonas aeruginosa [11]): inactive; MIC (Staphylococcus aureus [12]): > 5100 µM; MIC (Pseudomonas aeruginosa [13]): 5100 µM (≈ 2050 µg/mL)
